pEC50: −log10 of the molar value. Like-named read-outs stand apart in the source and are kept apart here.
Test system: PPAR-γ (promoter/enhancer of the murine aP2 gene in 3T3-L1 cells)
Experiment: 3T3-L1 transient reporter assay (AD3T3L1)
Format: cell-based
Conditions: for % Max BRL: maximal effect relative to reference BRL 49653
Description: TEST E—3T3-L1 TRANSIENT REPORTER ASSAY
This assay is used to determine the potential of putative PPAR-γ ligands to activate the promoter/enhancer of the murine aP2 gene. 3T3-L1 preadipocytes are cultured on collagen coated plates in DMEM containing 10% Calf serum for 48 hours post-confluence. The cells are then cultured for approximately 3 days in DMEM containing 10% Fetal Bovine Serum (FBS), 0.5-mM methyl isobutylxanthine, 0.25 μM dexamethasone, and 1 μg/ml of insulin. Cells are detached from the plates with Trypsin-EDTA and resuspended in Phosphate Buffered Saline (PBS).
The reporter construct used in this assay is comprised of the −5.4 Kb 5′ flanking region of the murine aP2 gene inserted into the cloning site of the TKpGL3 luciferase vector. Transfection efficiency is controlled by co-transfection of the reference plasmid CMV-β-galactosidase. The reporter construct and the reference plasmid are transiently co-transfected into the cells by electroporation. The transfected cells are plated into collagen coated 96-well plates and cultured overnight. Cells are then incubated for 48 hours with the test compounds and then harvested. The lysates are measured for luciferase and β-galactosidase activities using the Dual-Light® luciferase kit from Tropix on a EG&G Berthold MicroLumat LB96P luminometer.

Compound: 3-{2-Hydroxy-4-[2-(5-methyl-2-phenyl-oxazol-4-yl)-ethoxy]-phenyl}-propionic acid ethyl ester
- pEC50: 5.23
- % Max BRL: 74%

Compound: Cc1oc(-c2ccccc2)nc1CCOc1ccc(CCC(=O)O)c(O)c1 [3-[4-[2-(5-Methyl-2-phenyl-oxazol-4-yl)-ethoxy]-2-(hydroxy)-phenyl]-propionic acid]
- pEC50 (Mus musculus): 5.47
- % Max BRL: 70%

Compound: Cc1oc(-c2ccccc2)nc1CCOc1ccc(CCC(=O)O)c(OCc2ccccn2)c1 [3-[4-[2-(5-Methyl-2-phenyl-oxazol-4-yl)-ethoxy]-2-(pyridin-2-ylmethoxy)-phenyl]-propionic acid]
- pEC50 (Mus musculus): 6.99
- % Max BRL: 108%

Reference: US6716842B2, “Antidiabetic agents” (Warner-Lambert Company, LLC, priority 2002, dated 2004)
